The results in this text go back to patent US20100010219A1, “METHOD FOR PRODUCING PYRROLIDINE COMPOUND” (JAPAN TOBACCO INC., priority 2006, published 2010).

Where a name gives a salt, the structure may show the parent alone.

This assay deals with T1, human HSD-1 (recombinant HSD-1) (Homo sapiens, UniProt P28845).
T1 construct: made in house
T1 sequence (P28845 whole entry): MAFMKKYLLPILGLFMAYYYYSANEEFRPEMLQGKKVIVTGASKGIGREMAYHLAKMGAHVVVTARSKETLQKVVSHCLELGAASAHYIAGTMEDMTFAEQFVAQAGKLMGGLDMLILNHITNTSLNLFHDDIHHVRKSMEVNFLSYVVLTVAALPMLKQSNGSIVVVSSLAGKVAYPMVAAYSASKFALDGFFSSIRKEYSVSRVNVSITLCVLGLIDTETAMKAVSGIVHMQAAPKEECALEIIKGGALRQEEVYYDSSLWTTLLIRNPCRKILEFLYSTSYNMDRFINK
Nature of the assay: HSD-1 activity inhibitory action in vitro (SPA, conversion of cortisone to cortisol). In kind it is biochemical. As to conditions: recombinant human HSD-1 expressed using baculovirus system; 10 nM 3H cortisone, 500 μM NADPH; room temperature 90 to 120 min; read-out: hHSD1 (IC50 (nM)).
For `CC1(c2c(C(=O)N3CCC(c4cccnc4)C3)cnn2C2CCN(C(=O)Nc3ccc(C(F)(F)F)cc3)CC2)CC1` (centres unmarked) [Example 133, 1-{5-(1-methylcyclopropyl)-1-[1-(4-trifluoromethylphenylcarbamoyl)piperidin-4-yl]-1H-pyrazole-4-carbonyl}-3-(pyridin-3-yl)pyrrolidine], the 50% inhibitory concentration (IC50) was less than 30 nM. As for `CCONC(=O)N1CCC(n2ncc(C(=O)N3CCC(c4ccccc4C(F)(F)F)C3)c2C2(C)CC2)CC1` (centres unmarked) [Example 172, 1-[1-(1-ethoxycarbamoylpiperidin-4-yl)-5-(1-methylcyclopropyl)-1H-pyrazole-4-carbonyl]-3-(2-trifluoromethylphenyl)pyrrolidine], the half-maximal inhibitory concentration (IC50) was less than 30 nM. As to `CN(C)CCNC(=O)N1CCC(n2ncc(C(=O)N3CC[C@@H](c4ccccc4C(F)(F)F)C3)c2C2CC2)CC1` [Example 13, 1-{5-cyclopropyl-1-[1-(2-dimethylaminoethylcarbamoyl)piperidin-4-yl]-1H-pyrazole-4-carbonyl}-[(S)-3-(2-trifluoromethylphenyl)]pyrrolidine hydrochloride], the half-inhibitory concentration (IC50) is less than 30 nM. As for `CN1CCN(C(=O)N2CCC(n3ncc(C(=O)N4CC[C@@H](c5ccccc5C(F)(F)F)C4)c3C3CC3)CC2)CC1` [Example 29, 1-{5-cyclopropyl-1-[1-(4-methylpiperazine-1-carbonyl)piperidin-4-yl]-1H-pyrazole-4-carbonyl}-[(S)-3-(2-trifluoromethylphenyl)]pyrrolidine hydrochloride], the IC50 was less than 30 nM.

On to `NC(=O)CCC(=O)N1CCC(n2ncc(C(=O)N3CC[C@@H](c4ccccc4C(F)(F)F)C3)c2C2CC2)CC1` [Example 93, 1-{1-[1-(3-carbamoylpropionyl)piperidin-4-yl]-5-cyclopropyl-1H-pyrazole-4-carbonyl}-[(S)-3-(2-trifluoromethylphenyl)]pyrrolidine], for which the IC50 is less than 30 nM. The figure for `O=C(c1cnn(C2CCN(C(=O)N3CC(CO)C3)CC2)c1C1CC1)N1CC[C@@H](c2ccccc2C(F)(F)F)C1` [Example 28, 1-{5-cyclopropyl-1-[1-(3-hydroxymethylazetidine-1-carbonyl)piperidin-4-yl]-1H-pyrazole-4-carbonyl}-[(S)-3-(2-trifluoromethylphenyl)]pyrrolidine] is less than 30 nM; for `O=C(c1cnn(C2CCN(c3n[nH]c(CO)n3)CC2)c1C1CC1)N1CC[C@@H](c2ccccc2C(F)(F)F)C1` [Example 119, 1-{5-cyclopropyl-1-[1-(5-hydroxymethyl-4H-[1,2,4]triazol-3-yl)piperidin-4-yl]-1H-pyrazole-4-carbonyl}-[(S)-3-(2-trifluoromethylphenyl)]pyrrolidine hydrochloride] it is less than 30 nM; for `CC(C)[C@@H](C(=O)O)N(C)C(=O)N1CCC(n2ncc(C(=O)N3CCC(c4ccccc4C(F)(F)F)C3)c2C2CC2)CC1` (stereo partly drawn) [Example 142, 1-(5-cyclopropyl-1-{1-[((S)-1-carboxy-2-methyl-propyl)methylcarbamoyl]piperidin-4-yl}-1H-pyrazole-4-carbonyl)-3-(2-trifluoromethylphenyl)pyrrolidine] it is less than 30 nM. The figure for `O=C(O)c1ccc(N2CCC(n3ncc(C(=O)N4CCC(c5ccccc5C(F)(F)F)C4)c3C3CC3)CC2)c(F)c1` (centres unmarked) [Example 183, Sodium 4-(4-{5-cyclopropyl-4-[3-(2-trifluoromethylphenyl)pyrrolidine-1-carbonyl]pyrazol-1-yl}piperidin-1-yl)-3-fluorobenzoate] is less than 30 nM.

Turning to `O=C(c1cnn(C2CCN(C(=O)N3CCS(=O)(=O)CC3)CC2)c1C1CC1)N1CC[C@@H](c2ccccc2C(F)(F)F)C1` [Example 12, 1-{5-cyclopropyl-1-[1-(1,1-dioxothiomorpholine-4-carbonyl)piperidin-4-yl]-1H-pyrazole-4-carbonyl}-[(S)-3-(2-trifluoromethylphenyl)]pyrrolidine], the 50% inhibitory concentration (IC50) is less than 30 nM.

In the case of `O=C(Nc1ccccc1CO)N1CCC(n2ncc(C(=O)N3CC[C@@H](c4ccccc4C(F)(F)F)C3)c2C2CC2)CC1` [Example 6, 1-{5-cyclopropyl-1-[1-(2-hydroxymethylphenylcarbamoyl)piperidin-4-yl]-1H-pyrazole-4-carbonyl}-[(S)-3-(2-trifluoromethylphenyl)]pyrrolidine], the IC50 is less than 30 nM. `O=C(NC1CCNCC1)N1CCC(n2ncc(C(=O)N3CC[C@@H](c4ccccc4C(F)(F)F)C3)c2C2CC2)CC1` [Example 37, 1-{5-cyclopropyl-1-[1-(piperidin-4-yl-carbamoyl)piperidin-4-yl]-1H-pyrazole-4-carbonyl}-[(S)-3-(2-trifluoromethylphenyl)]pyrrolidine hydrochloride]: the IC50 is less than 30 nM. For `CC(=O)N[C@H](C(=O)N1CCC(n2ncc(C(=O)N3CC[C@@H](c4ccccc4C(F)(F)F)C3)c2C2CC2)CC1)C(C)C` [Example 72, 1-(1-{1-[(S)-2-acetylamino-3-methylbutyryl]piperidin-4-yl}-5-cyclopropyl-1H-pyrazole-4-carbonyl)-[(S)-3-(2-trifluoromethylphenyl)]pyrrolidine], the half-maximal inhibitory concentration (IC50) was less than 30 nM.

As for `CC(=O)NCCNC(=O)N1CCC(n2ncc(C(=O)N3CC[C@@H](c4ccccc4C(F)(F)F)C3)c2C2CC2)CC1` [Example 10, 1-{1-[1-(2-acetylaminoethylcarbamoyl)piperidin-4-yl]-5-cyclopropyl-1H-pyrazole-4-carbonyl}-[(S)-3-(2-trifluoromethylphenyl)]pyrrolidine], the IC50 is less than 30 nM. Take `O=C(c1cnn(C2CCN(C(=O)N3CCC[C@@H](O)C3)CC2)c1C1CC1)N1CC[C@@H](c2ccccc2C(F)(F)F)C1` [Example 32, 1-(5-cyclopropyl-1-{1-[(R)-3-hydroxypiperidine-1-carbonyl]piperidin-4-yl}-1H-pyrazole-4-carbonyl)-[(S)-3-(2-trifluoromethylphenyl)]pyrrolidine]: the IC50 was less than 30 nM. Next, `C[C@@H](CO)NC(=O)N1CCC(n2ncc(C(=O)N3CC[C@@H](c4ccccc4C(F)(F)F)C3)c2C2CC2)CC1` [Example 23, 1-(5-cyclopropyl-1-{1-[(S)-2-hydroxy-1-methylethylcarbamoyl]piperidin-4-yl}-1H-pyrazole-4-carbonyl)-[(S)-3-(2-trifluoromethylphenyl)]pyrrolidine]: less than 30 nM; `COc1ccnc(N2CCC(n3ncc(C(=O)N4CCC(CO)(c5ccccc5)C4)c3C3(C)CC3)CC2)n1` (centres unmarked) [Example 185, 3-hydroxymethyl-1-{1-[1-(4-methoxypyrimidin-2-yl)piperidin-4-yl]-5-(1-methylcyclopropyl)-1H-pyrazole-4-carbonyl}-3-phenylpyrrolidine hydrochloride]: less than 30 nM; `CC1(c2c(C(=O)N3CCC(CO)(c4cc(F)cc(F)c4)C3)cnn2C2CCN(c3ncccn3)CC2)CC1` (centres unmarked) [Example 186, 3-(3,5-difluorophenyl)-3-hydroxymethyl-1-{5-(1-methylcyclopropyl)-1-[1-(pyrimidin-2-yl)piperidin-4-yl]-1H-pyrazole-4-carbonyl}pyrrolidine hydrochloride]: less than 30 nM. The figure for `O=C1CC[C@@H](C(=O)N2CCC(n3ncc(C(=O)N4CC[C@@H](c5ccccc5C(F)(F)F)C4)c3C3CC3)CC2)N1` [Example 74, 1-(5-cyclopropyl-1-{1-[(S)-5-oxopyrrolidine-2-carbonyl]piperidin-4-yl}-1H-pyrazole-4-carbonyl)-[(S)-3-(2-trifluoromethylphenyl)]pyrrolidine] is less than 30 nM; for `CN(C)C(=O)CN1CCC(n2ncc(C(=O)N3CC[C@@H](c4ccccc4C(F)(F)F)C3)c2C2CC2)CC1` [Example 100, 1-[5-cyclopropyl-1-(1-dimethylcarbamoylmethylpiperidin-4-yl)-1H-pyrazole-4-carbonyl]-[(S)-3-(2-trifluoromethylphenyl)]pyrrolidine hydrochloride] it is less than 30 nM; for `NC(=O)C1(CN2CCC(n3ncc(C(=O)N4CC[C@@H](c5ccccc5C(F)(F)F)C4)c3C3CC3)CC2)CC1` [Example 106, 1-{1-[1-(1-carbamoylcyclopropylmethyl)piperidin-4-yl]-5-cyclopropyl-1H-pyrazole-4-carbonyl}-[(S)-3-(2-trifluoromethylphenyl)]pyrrolidine hydrochloride] it is less than 30 nM. As for `CC(=O)N1CCC(NC(=O)N2CCC(n3ncc(C(=O)N4CC[C@@H](c5ccccc5C(F)(F)F)C4)c3C3CC3)CC2)CC1` [Example 43, 1-{1-[1-(1-acetylpiperidin-4-yl-carbamoyl)piperidin-4-yl]-5-cyclopropyl-1H-pyrazole-4-carbonyl}-[(S)-3-(2-trifluoromethylphenyl)]pyrrolidine], the IC50 was less than 30 nM. Next, `O=C(NCc1ccc(F)cc1)N1CCC(n2ncc(C(=O)N3CCC(c4ccccc4C(F)(F)F)C3)c2C2CC2)CC1` (centres unmarked) [Example 147, 1-{5-cyclopropyl-1-[1-(4-fluorobenzylcarbamoyl)piperidin-4-yl]-1H-pyrazole-4-carbonyl}-3-(2-trifluoromethylphenyl)pyrrolidine]: less than 30 nM; `O=C(c1cnn(C2CCN(S(=O)(=O)C(F)(F)F)CC2)c1C1CC1)N1CC[C@@H](c2ccccc2C(F)(F)F)C1` [Example 108, 1-[5-cyclopropyl-1-(1-trifluoromethanesulfonylpiperidin-4-yl)-1H-pyrazole-4-carbonyl]-[(S)-3-(2-trifluoromethylphenyl)]pyrrolidine]: less than 30 nM; `CC(C)[C@@H](CO)NC(=O)N1CCC(n2ncc(C(=O)N3CC[C@@H](c4ccccc4C(F)(F)F)C3)c2C2CC2)CC1` [Example 49, 1-(5-cyclopropyl-1-{1-[(S)-1-hydroxymethyl-2-methylpropylcarbamoyl]piperidin-4-yl}-1H-pyrazole-4-carbonyl)-[(S)-3-(2-trifluoromethylphenyl)]pyrrolidine]: less than 30 nM. Next, `O=C(c1cnn(C2CCN(C(=O)N3CCC(O)C3)CC2)c1C1CC1)N1CC[C@@H](c2ccccc2C(F)(F)F)C1` (stereo partly drawn) [Example 16, 1-{5-cyclopropyl-1-[1-(3-hydroxypyrrolidine-1-carbonyl)piperidin-4-yl]-1H-pyrazole-4-carbonyl}-[(S)-3-(2-trifluoromethylphenyl)]pyrrolidine]: less than 30 nM.

As usually defined, the IC50 is the concentration needed to halve the response being measured.
